Experimental data published in ChEMBL document CHEMBL5331078, “1-Benzyloxy-5-phenyltetrazole derivatives highly active against androgen receptor-dependent prostate cancer cells” (Eur J Med Chem, 2023).

How the values were obtained:
CWR22R = assay: Antiproliferative activity against AR-v7 positive human 22Rv1 cells measured after 3 days by celltiter-glo luminescence assay; format: functional, cell-based
PC-3 = assay: Antiproliferative activity against human PC-3 cells measured after 3 days by celltiter-glo luminescence assay; format: functional, cell-based; conditions: PC-3, 72 h
[1] = Antiproliferative activity against Ar-luc mouse Adipose stromal cell measured after 3 days by celltiter-glo luminescence assay; format: toxicity, cell-based; conditions: Ar-luc mouse adipose stromal cells
Papain = molecular target: T1, Papain (Carica papaya, UniProt P00784); assay: Inhibition of papaya papain protease activity assessed as covalent binding mode of action at 10 uM incubated for 30 mins by absorbance based analysis; conditions: 0.5 h
T1 sequence (P00784 whole entry): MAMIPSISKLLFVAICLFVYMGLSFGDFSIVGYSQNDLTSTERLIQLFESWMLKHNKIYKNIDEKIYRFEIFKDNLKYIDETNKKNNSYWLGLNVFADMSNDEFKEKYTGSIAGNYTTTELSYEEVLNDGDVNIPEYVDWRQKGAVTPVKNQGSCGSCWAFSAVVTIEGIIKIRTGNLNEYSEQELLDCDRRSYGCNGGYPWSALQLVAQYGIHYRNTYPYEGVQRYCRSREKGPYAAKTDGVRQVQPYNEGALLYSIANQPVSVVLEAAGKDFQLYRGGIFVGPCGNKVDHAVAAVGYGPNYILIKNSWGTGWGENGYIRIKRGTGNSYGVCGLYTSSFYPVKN

[2] = Kinetic solubility of the compound in phosphate buffer at pH 6.5 after 30 mins by nephelometry; format: physicochemical; conditions: read-out: Kinetic_solubility
[3] = Metabolic stability in mouse liver microsomes assessed as intrinsic clearance incubated for 60 mins in presence of NADPH-regenerating system; format: ADME, Microsome; conditions: microsomes, 1 h
[4] = Kinetic solubility of the compound in 0.01 M HCl at pH 2 after 30 mins by nephelometry; format: physicochemical; conditions: read-out: Kinetic_solubility
[5] = Metabolic stability in mouse liver microsomes assessed as half life incubated for 60 mins in presence of NADPH-regenerating system; format: ADME, Microsome; conditions: microsomes, 1 h
[6] = Partition coefficient, logD of the compound at pH 7.4 by HPLC analysis; format: physicochemical; conditions: octanol/water
[7] = Homo sapiens, 22Rv1, 72 h, read-out: IC50

Row | SMILES | IC50 (PC-3) | IC50 (CWR22R; [7]) | IC50 at 3 days [1] | also measured
1 | Cc1nn(C)c(Cl)c1-c1nnnn1OCc1cccc(Cl)c1 | – | – | – | IC50 (CWR22R; cwr22r): Not Active
2 | Clc1ccc(COn2nnnc2-c2cccc(Cl)c2)cc1 | > 100 µM | 2.03 µM | 36.3 µM | –
3 | CNC(=O)c1ccc(N2C(=S)N(c3ccc(C#N)c(C(F)(F)F)c3)C(=O)C2(C)C)cc1F [ENZALUTAMIDE] | 42 µM | 36 µM | – | –
4 | COc1ccc(-c2nnnn2OC(F)(F)c2ccccc2)cc1 | > 10 µM | 5.41 µM | – | –
5 | Clc1ccc(CCn2nnnc2-c2ccc(Cl)cc2)cc1 | – | > 10 µM | – | –
6 | O=C(Nn1nnnc1-c1ccccc1)c1ccc(Cl)cc1 | – | > 10 µM | – | –
7 | CC(On1nnnc1-c1ccc(Cl)cc1)c1ccc(Cl)cc1 (stereo not drawn) | > 10 µM | 1.71 µM | – | –
8 | FC(F)(F)c1cccc(COn2nnnc2-c2cccc(C(F)(F)F)c2)c1 | > 10 µM | > 10 µM | – | –
9 | Clc1cccc(COn2nnnc2-c2cccnc2)c1 | > 10 µM | 3.55 µM | – | –
10 | Clc1ccc(CCOn2nnnc2-c2ccc(Cl)cc2)cc1 | – | > 10 µM | – | –
11 | FC(F)(On1nnnc1-c1ccc(Cl)cc1)c1ccccc1 | > 10 µM | > 10 µM | – | inhibition (INH) (Papain): Not Active
12 | Clc1ccc(On2nnnc2-c2ccc(Cl)cc2)cc1 | > 10 µM | > 10 µM | – | –
13 | Clc1ccc(-c2nnnn2OCC2CC2)cc1 | > 10 µM | > 10 µM | – | –
14 | CC(C)(c1ccc(Cl)cc1)n1nnnc1-c1ccc(Cl)cc1 | – | > 10 µM | – | –
15 | Clc1ccc(-c2nnnn2OCC2CCCCC2)cc1 | > 10 µM | > 10 µM | – | –
16 | Clc1ccc(/C=N\OCc2ccc(Cl)cc2)cc1 | > 10 µM | > 10 µM | – | –
17 | Fc1ccc(CO/N=C\c2ccc(Cl)cc2)cc1 | > 10 µM | > 10 µM | – | –
18 | Clc1cccc(COn2nnnc2-c2ccc(Cl)cc2Cl)c1 | > 100 µM | 0.4 µM | > 100 µM | –
19 | COc1ccc(COn2nnnc2-c2ccc(OC)cc2)cc1 | > 10 µM | 9.1 µM | – | –
20 | Clc1cccc(COn2nnnc2-c2cccc(Cl)c2)c1 | > 100 µM | 0.036 µM | 10.6 µM | –
21 | Cc1nn(C)c(Cl)c1-c1nnnn1OCc1ccc(Cl)cc1 | – | – | – | IC50 (CWR22R; cwr22r): Not Active
22 | Clc1ccc(COn2nnnc2-c2cccnc2)cc1 | – | – | – | IC50 (CWR22R; cwr22r): Not Active
23 | Clc1ccc(COn2nnnc2-c2ccc(Cl)cc2Cl)cc1 | > 100 µM | 3.79 µM | > 100 µM | –
24 | Fc1ccc(-c2nnnn2OCCc2ccc(Cl)cc2)cc1 | – | > 10 µM | – | –
25 | CC(C)(On1nnnc1-c1ccc(Cl)cc1)c1ccc(Cl)cc1 | – | > 10 µM | – | –

Second part, led by results:

Row | IC50 (PC-3) | SMILES | IC50 (CWR22R; [7]) | IC50 at 3 days [1] | also measured
26 | > 100 µM | Clc1ccc(-c2nnnn2OCc2cccc(Br)c2)cc1 | 0.066 µM | > 100 µM | –
27 | 14.2 µM | Clc1ccc(-c2nnnn2OCc2ccnc(Cl)c2)cc1 | 0.022 µM | 7 µM | –
28 | > 100 µM | COc1ccc(-c2nnnn2OCc2cccc(Cl)c2)cc1 | 0.023 µM | 6.8 µM | –
29 | > 10 µM | COc1ccc(COn2nnnc2-c2ccc(Cl)cc2)cc1 | > 10 µM | – | –
30 | 25.7 µM | Fc1ccc(COn2nnnc2-c2ccc(Cl)cc2)cc1 | 0.031 µM | 5.4 µM | –
31 | > 60 µM | Clc1ccc(-c2nnnn2OCc2ccc(Cl)c(Cl)c2)cc1 | 0.1 µM | > 60 µM | –
32 | > 10 µM | Fc1ccc(On2nnnc2-c2ccc(Cl)cc2)cc1 | > 10 µM | – | –
33 | 47.4 µM | Fc1ccc(-c2nnnn2OCc2ccc(Cl)cc2)cc1 | 0.74 µM | > 100 µM | inhibition (INH) (Papain): Not Active
34 | > 100 µM | Fc1ccc(-c2nnnn2OCc2ccnc(Cl)c2)cc1 | 0.5 µM | 15 µM | –
35 | > 100 µM | Fc1ccc(-c2nnnn2OCc2cccc(Cl)c2)cc1 | 0.076 µM | > 60 µM | –
36 | > 100 µM | Fc1ccc(-c2nnnn2OCc2ccc(Cl)c(Cl)c2)cc1 | 0.066 µM | 23.4 µM | –
37 | 30.2 µM | COc1ccc(-c2nnnn2OCc2ccc(Cl)cc2)cc1 | 0.025 µM | 22.9 µM | –
38 | 52.1 µM | Clc1ccc(-c2nnnn2OCc2ccc(Br)cc2)cc1 | 0.023 µM | 13.8 µM | –
39 | 0.566 µM | Clc1ccc(-c2nnnn2OCc2ccccc2)cc1 | 0.04 µM | – | –
40 | > 10 µM | Fc1ccc(-c2nnnn2OC(F)(F)c2ccc(Cl)cc2)cc1 | > 10 µM | – | –
41 | > 100 µM | Fc1ccc(-c2nnnn2OCc2ccc(Cl)s2)cc1 | 3.75 µM | > 100 µM | –
42 | 16.8 µM | FC(F)(F)c1cccc(COn2nnnc2-c2ccc(Cl)cc2)c1 | 0.261 µM | 4.9 µM | –
43 | > 10 µM | Fc1ccc(On2nnnc2-c2ccc(F)cc2)cc1 | > 10 µM | – | –
44 | > 100 µM | Clc1ccc(-c2nnnn2OCc2ccc(Cl)s2)cc1 | 0.131 µM | > 60 µM | –
45 | > 100 µM | Fc1cccc(COn2nnnc2-c2ccc(Cl)cc2)c1 | 0.012 µM | 2.6 µM | –
46 | > 100 µM | Clc1ccc(-c2nnnn2OCc2ccc(Cl)nc2)cc1 | 0.391 µM | 3 µM | –
47 | 6.79 µM | Clc1ccc(-c2nnnn2OCc2cccc(Cl)c2)cc1 | 0.073 µM | > 60 µM | solubility kinetic at 0.5 h [2]: < 1.6 µg/mL; CLH [3]: 147 µL/min/mg; solubility kinetic at 0.5 h [4]: < 1.6 µg/mL; t1/2 [5]: 2.45 h; logD [6]: 4.5
